These results are taken from patent US20240293344A1, “Unsaturated Hydroxamic Acid Derivatives and Their Use for the Treatment and Prevention of an Ammonia-Associated Disease or Disorder” (Versantis AG, priority 2021, published 2024).

Where two headings read alike, the source gives them in different places.

A short description of data set [1]: Pharmacokinetics in male beagle dogs (plasma). Type of data set: in vivo, dog. The following applies: for bioavailability: dog. The source says: The main objective of the experiment was to quantify the levels of 2-octynoHA in the plasma of male beagle dogs following I.V. administration of a solution of 2-octynoHA with HPβCD (1:1 molar ratio) (PK 1), oral (P.O.) administration of 2-octynoHA formulated in an uncoated gelatin capsule size 0 (PK 2), and oral administration of 2-octynoHA formulated in a coated (Eudragit S100 15% w/w, triethyl citrate 5% w/w, isopropyl alcohol 40% w/w, ethanol 40% w/w) gelatin capsule size 0 for colonic delivery (PK 3) (Table Ill). For each of the studies, three animals were administered with a single dose of the corresponding treatment. Plasma samples were collected at pre-determined time points (Table Ill).
In PK 1, the plasma samples were extracted by protein precipitation prior to analysis. In brief, 40 μL plasma was precipitated with 2 volumes (80 μL) of an organic solvent solution consisting of acetonitrile:methanol (80:20 v/v) containing 1% formic acid. Samples were vortex-mixed and centrifuged at 13,000 rpm. 100 μL of supernatant were further diluted with 100 μL water containing 0.1% formic acid (final dilution factor of 6×). The sample extracts were transferred into a 96-well plate. Four μL plasma extract were injected for chromatographic separation and high resolution/accurate mass analysis. Separation was performed on a 5 cm C18 UPLC column, detection and quantification were performed on a quadrupole time-of-flight (QTof) mass spectrometer in the positive ion mode.
In both PK 2 and PK 3, prior to extraction, plasma samples (ca. 700 μL) were acidified by adding 15 μL of 50% phosphoric acid in water. Then, plasma samples (40 μL) were extracted by protein precipitation by adding 2 volumes (80 μL) of an organic solvent solution consisting of acetonitrile:methanol (80:20 v/v) containing 0.2% formic acid.
Samples were vortex-mixed and centrifuged at 13,000 rpm for 5 min. 100 μL of supernatant were further diluted with 100 μL water containing 0.1% formic acid (final dilution factor of 6×). The sample extracts were transferred into a 96-well plate. Five μL were injected for chromatographic separation and further mass analysis. The chromatographic separation was performed on a 10 cm C18 UPLC column and the MS detection and quantification was performed on a quadrupole time-of-flight (QTof) mass spectrometer in the positive ion mode.
Concentrations of 2-octynoHA was quantified based on the calibration curve. In the PK 1, 2-octynoHA was detected at the m/z 156.1 with the retention time (RT) of 4.12 min. […] Concentration values below the lower limit of quantitation (LLOQ) (i.e., lowest amount of an analyte in a sample that can be quantitatively determined with suitable precision and accuracy) were considered equal to zero.

The subject of data set [2] is bile-duct ligated (BDL) rat model of hepatic encephalopathy. Briefly: In vivo efficacy in bile-duct ligated (BDL) rats, blood ammonia. The settings on record: 30 mg/kg twice a day by gavage in HPβCD solution, dropped from 53±30.31 μmol/L before treatment, n=4. As to the method:
Efficacy of 2-octynoHA was evaluated in the bile-duct ligated (BDL) rat model, which is recommended by the International Society for Hepatic Encephalopathy and Nitrogen Metabolism (ISHEN) as an animal model of hepatic encephalopathy (HE) associated with chronic liver cirrhosis. This model is obtained by obstruction of the common bile duct that causes impairment of liver function and thereby development of hyperammonemia and low-grade HE.
In this study, on the DO blood ammonia levels were measured (n=4, 27.25±6.18 μmol/L) using PocketChem™ (Arkray, Japan) after which all rats were subjected to the BDL surgery. Right before surgery all animals were given injection of slow-release buprenorphine (lasting 72 h) between the shoulder blades. Then, animals were anesthetized with isoflurane in O2. Depth of anesthesia was checked by toe-pinching. Further, a midline incision was made (2 cm), and then the common bile duct was isolated of surrounding tissue, tightly ligated twice with silk suture and cut between the 2 ligations. Abdominal incision was closed with Vicryl™ 4-0 for muscle layers; skin was closed with staples and one drop of Vetbond™ tissue glue was applied to secure closing. Animals were then placed on heating pad for recovery. For the first 4 weeks post-surgery, animals were monitored for pain level, extent of jaundice, body weight (BW) and disease scores. […]

The subject of another data set is Caco-2 cells. As to the kind of experiment: Cytotoxicity in Caco-2 cells (CCK-8). The settings on record: 24 h.

Protocol for Caco-2 cells: The compounds used were 2-octynoHA, OHA (Tokyo Chemical Industry Co., Ltd.; Japan) and AHA (Sigma-Aldrich, St. Louis, MO) The human colorectal adenocarcinoma cell line Caco-2 was obtained from American Type Culture Collection. The cells were cultured in complete medium containing DMEM (Dulbecco's modified Eagle's medium) high glucose, GlutaMax™, pyruvate (Thermo Fisher Scientific, Waltham, MA) supplemented with 10% fetal bovine serum (Thermo Fisher Scientific, Waltham, MA), 1% penicillin-streptomycin (Thermo Fisher Scientific, Waltham, MA) and 15 mM HEPES (Thermo Fisher Scientific, Waltham, MA). The cells were incubated at 37° C. in a humidified atmosphere with 5% CO2. Caco-2 cells were used in the experiments from passage 50 to 60 and were tested negative for mycoplasma.
The cytotoxicity of HAs was assessed using Cell Counting Kit-8 (CCK-8, Sigma-Aldrich, St. Louis, MO), a colorimetric assay based on tetrazolium salt WST-8 which is reduced by dehydrogenases in cells to an orange-colored formazan. The absorbance of formazan at 450 nm is directly proportional to the number of living cells.
In order to test cytotoxicity of HAs, Caco-2 cells were seeded in a 96-well plate at a density of 5×10^3 cell/well and grown for 1 day. Then, cells were treated with an increasing range of inhibitors' concentrations and incubated for another 24 h at 37° C., 5% CO2. […] After incubation, cells were washed with phosphate buffered saline (Thermo Fisher Scientific, Waltham, MA), treated with DMEM without phenol red (Thermo Fisher Scientific, Waltham, MA) containing CCK-8 reagent and incubated for another 2 h at 37° C. in a humidified atmosphere with 5% CO2. The absorbance of medium at 450 nm was measured using Tecan Infinite M200 PRO plate reader. Caco-2 cell viability was calculated as a percentage of the medium control.

For orientation: Tmax means the time from dosing to the highest level. For `CCCCCC#CC(=O)NO` [2-octynoHA, N-hydroxyoct-2-ynamide], the plasma concentration result in data set [1] (PK 3: P.O., 300 mg per dog, coated (Eudragit S100) gelatin capsule for colonic delivery) is listed as “below LLOQ”. Also, the bioavailability was around 4.5% in data set [1] (male, beagle, plasma, po, 300 mg, uncoated gelatin capsule, dose-adjusted AUC0-t of PK 1 and PK 2, read-out: bioavailability after oral administration); around 0% in data set [1] (male, beagle, plasma, po, delivery via a colonic capsule, read-out: oral bioavailability). In addition, the Tmax in data set [1] (male, beagle, plasma, po, PK 2: P.O., 300 mg per dog, uncoated gelatin capsule) amounted to 30 min. The AUC(0-t) in data set [1] (male, beagle, plasma, po, PK 2: P.O., 300 mg per dog, uncoated gelatin capsule, read-out: AUC0-t (t=12 h)) was around 213 ng·h/mL; in data set [1] (plasma, iv, PK 1: I.V., 100 mg per dog, solution with HPβCD (1:1), male beagle dogs, read-out: AUC0-t (t=4 h)), around 1780 ng·h/mL. The “mean blood ammonia level three days after initiating treatment” value in data set [2] was 11 ± 5.68 µmol/L. Moreover, the “Caco-2 cell viability (percentage of the medium control)” value with Caco-2 cells (10 mM) is recorded as “ca. 6%”. Further, in the data set on Caco-2 cells (Caco-2 cells), the “concentration up to which no cytotoxicity was detected” value is reported as “up to 1 mM”.
